One assay has as its system Class I HDACs. The assay is described as follows: Specific HDAC activity analysis, Class I HDACs overall. In kind it is biochemical. As to the method:
Specific HDAC inhibition activity was analysed for HDAC1, 2, 3, 4, 5, 6, 9 using fluorogenic assay kits for each type of HDAC (BPS Bioscience, CA). Assays were conducted according to manufacturer's instructions and each sample were performed in replicates. Cell free supernatants were diluted 1 in 10 and exposed to specific HDAC proteins provided in the kit to maintain consistency between methods.
The specific HDAC inhibition profile of the test bacteria strain was investigated. Specific HDAC inhibition assays (BPS Bioscience, CA) were carried out for Class I and Class II HDACs. The ability of the bacterial strain to inhibit HDAC enzymes was compared to butyrate, hexanoic and valeric acid (FIGS. 14 and 15).

The subject of the next assay is HDAC. Put plainly: HDAC inhibition on whole HT-29 cells and HT-29 cell lysate. The class given is cell-based. Particulars: HT-29, whole cells or lysate not told apart in the sentence. The method, then:
Bacterial culture and cell-free supernatant collection Pure cultures of bacteria were grown anaerobically in YCFA broth until they reached their stationary growth phase. Cultures were centrifuged at 5,000×g for 5 minutes and the cell-free supernatant (CFS) was filtered using a 0.2 μM filter (Millipore, UK). 1 mL aliquots of the CFS were stored at −80° C. until use. Sodium butyrate, hexanoic and valeric acid were obtained from Sigma Aldrich (UK) and suspensions were prepared in YCFA broth.
To investigate which metabolites were responsible for the strain-induced HDAC inhibition, different concentrations of hexanoic acid, valeric acid and sodium butyrate were measured for their HDAC inhibition on whole HT-29 cells and on HT-29 cell lysate.

Structures are written as SMILES.

Turning to `CCCCC(=O)O` [valeric acid], the “Inhibition of Class I HDACs” value in the assay on Class I HDACs is given as “class 1 HDAC inhibitor”. In addition, the “total HDAC activity, pure substances” value in the assay with HDAC was “significant HDAC inhibition”; with HDAC (listed as Valeric acid), “inhibited”.
